Results reported in PMC2131780, “A Tale of Switched Functions: From Cyclooxygenase Inhibition to M-Channel Modulation in New Diphenylamine Derivatives” (PLoS ONE, 2007).
Where two headings read alike, the source gives them in different places.

Tests used:
[1] = test system: COX enzymes (CT26 mouse colon adenocarcinoma cells); test: COX inhibition, PGE2 production in CT26 cells; type: cell-based
Source text: In addition, the aromatic rings of the diphenylamine moiety were substituted with different electron donating or withdrawing groups. In a first screen, two parameters were checked: (a) the non-selective inhibition of COX-1/COX-2 enzyme activities, measured by the production of PGE2 in cultured mouse colon adenocarcinoma (CT26) and mouse Lewis lung carcinoma cells (D122) cells; (b) the M-channel activity, measured by the heterologous coexpression of Kv7.2 and Kv7.3 subunits in Chinese hamster ovary (CHO) cells.
Mouse colon adenocarcinoma CT26 and mouse Lewis lung carcinoma D122 cells were grown in DMEM (D122) or RPMI (CT26) supplemented with 10% fetal calf serum, 4% glutamine, 1% penicillin-streptomycin-nystatin and 3% non essential amino acids (D122) and maintained in a humidified 37°C incubator with 5% CO2. For the COX assays, cells were grown onto 24 multiwell plates. Before the assay, cells were washed with serum-free medium; then tested compounds were added to the medium and incubated for 30 min at 37°C after which 30 µM arachidonic acid was added and incubated for additional 20 min. At the end of the incubations, 10 µM indomethacin was added to stop the reaction and medium was transferred to another 24 multiwell plate for measuring PGE2 production by radioimmunoassay (DuPont-NEN; Boston, MA) according to manufacturer protocol. Protein determination was assayed on scraped cells and was used to normalize the amount of PGE2 production. Assays with purified ovine COX-1 and human recombinant COX-2 were performed using the COX inhibitor screening assay (Cayman chemical company, Ann Arbor, MI), according to manufacturer protocol.

rat hippocampal neurons = test: Current-clamp recording of cultured hippocampal neurons; type: cell-based
Protocol: For hippocampal neuronal cultures, Sprague-Dawley rat embryos (E18) were removed by caesarian section and their hippocampi were dissected out. The tissue was digested with papain for 20 min, triturated to a single-cell suspension, and plated at a density of 40,000 cells per ml on a substrate of bovine collagen type IV and 100 µg/ml poly-L-lysine in 13 mm diameter glass coverslips of a 24-multiwell plate. The culture medium consisted of Modified Eagle's Medium containing 5% horse serum (Biological Industries, Beit HaEmek, Israel), B-27 neuronal supplement (Invitrogen, Carlsbad, CA), 100 U/ml penicillin, 100 µg/ml streptomycin, and 2 mM glutamine. D-glucose was supplemented to a final concentration of 6 g/l. Cytosine-1-D-arabinofuranoside (5 µM) was added after 5 days to arrest glial cell proliferation. For electrophysiological recordings hippocampal neurons were used at 10–14 days in culture. All cultures were maintained at 37°C in humidified air containing 5% CO2.
For current-clamp recordings in primary cultured neurons, the patch pipettes were filled with (in mM): 135 KCl, 1 K2ATP, 1 MgATP, 2 EGTA, 1.1 CaCl2, 5 glucose, 10 HEPES, adjusted with KOH at pH 7.4 (315 mOsm). […] A liquid junction potential of about −15.6 mV was measured between the intracellular and saline solutions and corrected on-line. […]

Compound: O=C(Cc1cc([N+](=O)[O-])ccc1Nc1c(Cl)cccc1Cl)OCCO [Compound 15]
- IC50 ([1]; average of two experiments in triplicate, read-out: COX inhibition (IC50, µM) CT26): 0.048 µM
- IC50 ([1]; read-out: COX inhibition IC50, typical experiment (Figure 1)): 0.069 µM
- number of evoked action potentials, hippocampal neurons (rat hippocampal neurons; 25 µM, 75–200 pA for 400 ms): 2.1±0.5
- hyperpolarization of hippocampal neurons (rat hippocampal neurons; exposed to compound): −8.5 mV
